{"source": "patent US20170128389A1", "about": "“Paediatric Compositions For Treating Multiple Sclerosis” (Novartis AG, priority 2008, published 2017)", "key": {"[1]": {"system": "lymphocyte counts / tolerability in adolescents", "assay": "open-label, single-dose 28-day pharmacokinetic and safety/tolerability study in pediatric patients", "format": "in vivo, human", "description": "An open-label, single-dose 28-day pharmacokinetic and safety/tolerability study of FTY720 in pediatric is performed (8 patients aged 11-17 years, 5 patients aged 8-10 years and 5 patients aged 1-5 years). The contents of 0.5 mg capsules is dispersed in water and administered as an oral solution at a dose of 0.07 mg/kg to a maximum dose of 5 mg. The dose is administered by study personnel either directly from the glass mixing vial or with an oral syringe followed by drinking 2 water-rinse cycles of the vial or syringe and an additional 50-200 mL of water.\nBlood samples are collected for 28 days postdose and analyzed for fingolimod and fingolimod-phosphate blood concentrations by validated liquid chromatography methods with tandem mass spectrometry. Standard noncompartmental pharmacokinetic parameters are derived. Absolute lymphocyte counts are measured over 28 days to characterize the effect of FTY720 on lymphocyte decrease and recovery. Heart rate is recorded frequently for 24 hours postdose.\nSafety and tolerability assessments includes information on adverse events, body height and weight, supine systolic and diastolic blood pressure and radial pulse rate; standard 12-lead electrocardiograms (ECGs) interpreted at eResearchTechnology, Inc (Philadelphia, Pa., USA); standard hematology, biochemistry, and urinalysis parameters; screens for Hepatitis B surface antigen (HBsAg), Hepatitis C antibodies, and HIV; and pregnancy tests."}, "[2]": {"system": "patients with moderate asthma", "assay": "randomized, double-blind, placebo-controlled ascending multiple oral dose study in patients with moderate asthma", "format": "in vivo, human", "conditions": "0.5, 1.25 or 2.5 mg, 10 days", "description": "A randomized, double-blind, placebo-controlled, parallel, time-lagged, ascending, multiple oral dose study, is performed in patients with moderate asthma: 36 patients in 3 cohorts (12 patients per cohort). In each cohort, patients are randomized between the FTY720 group (9 patients) and placebo (3 patients)\nCohort 1: FTY720 0.5 mg or placebo\nCohort 2: FTY720 1.25 mg or placebo\nCohort 3: FTY720 2.5 mg or placebo\nDuration of treatment: 10 days.\nPatients continue to take their standard daily dose of long-acting β2 agonist and inhaled corticosteroid throughout the study uninterrupted.\nPulmonary function test (FEV1, FEF25-75): is performed at 12-hour profile on Day 1 (pre-dose, 1, 2, 3, 4, 5, 6, and 12 hr post dose), 6-hour profile at baseline (Day −1) and on Day 10. An additional PFT is done 6 hours post dose on Days 2, 3, and 7."}, "[3]": {"system": "patients with relapsing multiple sclerosis (MS)", "assay": "Hamburg Quality of Life Questionnaire in MS (HAQUAMS) scores, core 6-month study and extension", "format": "in vivo, human", "description": "Hamburg Quality of Life Questionnaire in MS (HAQUAMS) scores were recorded at baseline, month 3 (M3), and M6 during a core 6-month study, and M12 and M24 during an extension of the core study. The HAQUAMS consists of 38 items, 28 of which contribute to five sub-domains. Domain scores range from 1 to 5, with lower scores indicating improved HRQL. A total score was generated by averaging the five sub-domain scores."}, "[4]": {"system": "patients with relapsing multiple sclerosis (MS)", "assay": "long-term extension of the study (up to 36 months, FTY720 once-daily)", "excerpt": "All patients who subsequently opted to enter a long-term extension of the study received FTY720 once-daily for up to 38 months."}, "[5]": {"system": "patients with relapsing multiple sclerosis (MS)", "assay": "6-month, placebo-controlled trial of oral FTY720 in 281 patients with relapsing MS", "format": "in vivo, human", "conditions": "oral 1.25 or 5.0 mg once-daily, 6 months"}, "[6]": {"conditions": "after 36 months of continuous treatment"}}, "data": [{"smiles": "CCCCCCCCc1ccc(CCC(N)(CO)CO)cc1", "note": "[FTY720, 2-amino-2-[2-(4-octylphenyl)ethyl]propane-1,3-diol]", "values": [{"measurement": "lymphocyte count nadir", "setting": "[1]; adolescents, single dose", "result": "0.37±0.17 ×10^9/L"}, {"measurement": "time of lymphocyte nadir (median)", "setting": "[1]; adolescents, single dose", "result": 2, "unit": "days postdose"}, {"measurement": "decrease of mean lymphocyte counts from predose", "setting": "[1]; adolescents, single dose, predose count 2.64±1.04×10^9/L", "result": 85, "unit": "%"}, {"measurement": "lymphocyte count recovery", "setting": "[1]; by end-of-study visit on day 28", "result": "back to baseline"}, {"measurement": "tolerability", "setting": "[1]; single dose 0.07 mg/kg oral solution, adolescents", "result": "well tolerated"}, {"measurement": "tolerability of treatment initiation", "setting": "[2]", "result": "well tolerated"}, {"measurement": "HAQUAMS mean total score", "setting": "[3]; M6, oral 1.25 mg", "result": 1.9}, {"measurement": "HAQUAMS total score, mean change from baseline", "setting": "[3]; M6, oral 1.25 mg", "result": "−0.02"}, {"measurement": "HAQUAMS mean total score", "setting": "[3]; M6, oral 5 mg", "result": 1.9}, {"measurement": "HAQUAMS total score, mean change from baseline", "setting": "[3]; M6, oral 5 mg", "result": "−0.01"}, {"measurement": "HAQUAMS fatigue/thinking domain, change", "setting": "[3]; baseline to M6, oral 1.25 mg (placebo +0.14; p=0.030)", "result": "−0.05"}, {"measurement": "total HAQUAMS scores", "setting": "[3]; through M24", "result": "Stable"}, {"measurement": "safety profile", "setting": "[4]; 1.25 mg dose", "result": "good safety profile"}, {"measurement": "clinical and MRI activity", "setting": "[4]; after 3 years of follow-up, continuous oral 1.25 mg or 5.0 mg dose", "result": "persistent inhibition of clinical and MRI activity"}, {"measurement": "ARR", "setting": "[4]; [6]", "result": "0.20-0.21"}, {"measurement": "patients remained relapse-free", "setting": "[4]; [6]", "result": "68-73%"}, {"measurement": "patients free from 6-month sustained disability progression", "setting": "[4]; month 36", "result": "76-80%"}, {"measurement": "patients free from Gd+ lesions", "setting": "[4]; month 36, each group", "result": "88-89%"}, {"measurement": "patients free from new T2 lesions", "setting": "[4]; month 36, each group", "result": "70-78%"}, {"measurement": "discontinuation rate", "setting": "[4]; months 12-24 of extension", "result": 17.2, "unit": "%"}, {"measurement": "diarrhea reported", "setting": "[4]; months 24-36", "result": 2.7, "unit": "%"}, {"measurement": "dyspnea reported", "setting": "[4]; months 24-36", "result": 1.1, "unit": "%"}, {"measurement": "nausea reported", "setting": "[4]; months 24-36", "result": 2.1, "unit": "%"}, {"measurement": "discontinuation rate", "setting": "[4]; months 24-36 of extension", "result": 6.0, "unit": "%"}, {"measurement": "reduction of annualized relapse rate (ARR) versus placebo", "setting": "[5]", "result": "> 50", "unit": "%"}, {"measurement": "reduction of cumulative number of gadolinium-enhancing (Gd+) lesions versus placebo", "setting": "[5]", "result": "up to 80%"}]}]}
